In patent publication US8507516B2, “Azabicyclic compounds as alpha-7 nicotinic acetylcholine receptor ligands” (Bristol-Myers Squibb Company, priority 2009, dated 2013):
pEC50: −log10 of the molar value. Like-named read-outs stand apart in the source and are kept apart here.

Molecular target: T1, α-7 nicotinic ACh receptor ion channels expressed in mammalian HEK 293 cells (Rattus norvegicus, UniProt Q05941)
T1 construct: expressed in transfected cells
Test: Ca2+-sensitive, fluorescence-based assay for α-7 nicotinic acetylcholine receptor channel function (FLIPR)
Type: cell-based
Experimental: II) A Ca^2+-Sensitive, Fluorescence-Based Assay α-7 for Nicotinic Acetylcholine Receptor Channel Function In Mammalian Cells (“FLIPR”).
Lead compounds are evaluated for agonist activity at α-7, α3β4, α4αβ2, and α1β1δ1ε sub-types of nicotinic ACh receptor ion channels expressed in mammalian HEK 293 cells. Agonist potency and efficacy values are determined from kinetic fluorescence Ca^2+ influx measurements made using a 384 well FLIPR (Fluorescence Image Plate Reader). […] In this assay, channel expressing HEK cell lines seeded in 384 well assay plates are loaded with a membrane permeant fluorescent Ca^2+ indicator dye, whose 510 nm green emission signal increases in response to elevation of intracellular Ca^2+ concentration. The basal fluorescence from the cells is monitored in real time, followed by the acute addition of test compounds.
Reagents: The acetomethoxy (AM) ester of the Ca^2+ indicator dye Fluo-4 was obtained from InVitrogen, (Carlsbad, Calif.). Acetylcholine and all buffer constituents were purchased from Sigma Chemical Company, St. Louis, Mo. G418 and Minimal Essential Medium were purchased from InVitrogen Life Technologies, Carlsbad, Calif. Fetal bovine serum was purchased from (InVitrogen, Carlsbad, Calif.).
HEK-293 cells were grown in Minimal Essential Medium containing 10% (v/v) fetal bovine serum at 37° C. in a 5% CO2 incubator. HEK-293 cells stably expressing the ion channels were grown in the same medium with the addition of 500 μg/ml G418.
HEK-293 cells expressing the ion channels of interest were plated in 384 well, black-walled, clear-bottomed, poly-D-lysine coated plates at a density of ˜20,000 cells/well in 20 μl of Minimal Essential Medium containing 10% (v/v) fetal bovine serum and incubated for 2 days at 29° C. in a 5% CO2 incubator. Prior to assay, cells were loaded with the Fluo-4 AM ester. […] Dye loading was allowed to proceed for 90 minutes at room temperature at which time the dye loading solution was removed and replaced with 40 μl/well of Hanks buffer. Cells loaded with dye were loaded onto a FLIPR384 (Molecular Devices, Sunnyvale, Calif.). Fluo-4 dye was excited using the 488 nm line of an argon laser. Emission was filtered using a 540+/−30 nm bandpass filter. For evaluation of the effects of test compounds using the Ca^2+ flux assay, compounds to be tested were provided in assay ready plates. For nicotinic receptor ion channel expressing cells, the assay was initiated by the addition of 20 μl/well of Hanks buffer containing test compounds. For all assays, data were collected at 1 Hz for 10 seconds (baseline), at which time the compound containing stimulus buffers are added, and further measurements collected at 0.33 Hz for 3 min.
The statistical robustness of the nicotinic receptor Ca^2+ flux assays is determined from blanks and totals wells. […] The raw fluorescence units data files generated on the FLIPR plate reader are automatically exported and processed by in-house data analysis tools. The reduced percent activation data for each concentration of test compound are fit using MathIQ fitting engine (ID Business Solutions Limited, Surrey, UK). Data were analyzed by fitting maximum amplitudes of change in fluorescence, for Ca^2+ flux for a given condition of test compound. […] Test compound efficacy values (Ymax values) are expressed relative to a maximal response to acetylcholine in the total wells.

[1] = FLIPR α7-HI (EC50, nM), agonist potency, Ca2+ influx
[2] = FLIPR α7 actvity rating (EC50, nM), activity class based on EC50, Ca2+ influx
[3] = activity class based on EC50, Ca2+ influx, read-out: FLIPR α7 actvity rating (EC50)
[4] = agonist potency, Ca2+ influx, read-out: FLIPR α7-HI (EC50)

T1 sequence (Q05941 23-502): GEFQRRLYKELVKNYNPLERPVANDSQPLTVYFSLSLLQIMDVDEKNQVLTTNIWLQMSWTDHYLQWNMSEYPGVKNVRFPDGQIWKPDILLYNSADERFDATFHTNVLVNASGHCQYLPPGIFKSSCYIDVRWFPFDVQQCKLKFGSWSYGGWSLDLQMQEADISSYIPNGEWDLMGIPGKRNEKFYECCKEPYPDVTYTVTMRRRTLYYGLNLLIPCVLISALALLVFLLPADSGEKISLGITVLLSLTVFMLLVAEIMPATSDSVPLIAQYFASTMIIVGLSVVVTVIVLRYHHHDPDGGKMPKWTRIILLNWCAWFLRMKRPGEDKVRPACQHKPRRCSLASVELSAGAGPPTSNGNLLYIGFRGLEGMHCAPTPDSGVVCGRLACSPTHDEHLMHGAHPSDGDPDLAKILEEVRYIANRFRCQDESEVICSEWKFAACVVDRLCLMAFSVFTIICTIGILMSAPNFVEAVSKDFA

| Structure (SMILES) | EC50 [1] [nM] | EC50 [2] [nM] | pEC50 [3] | pEC50 [4] | pEC50 (read-out: FLIPR α7 actvity rating (EC50), activity class based on EC50, Ca2+ influx) |
| --- | --- | --- | --- | --- | --- |
| c1cnc2sc(NC3=NC[C@@]4(C[N@@]5CCC[C@@H]4C5)O3)nc2c1 (relative stereo) [Example 5, (5R*,5′R*)—N-(thiazolo[5,4-b]pyridin-2-yl)-4′H-1-azaspiro[bicyclo[3.2.1]octane-6,5′-oxazol]-2′-amine] | 132 | < 100 | – | – | – |
| c1ccc2cc(NC3=NC[C@@]4(C[N@]5CCC[C@H]4C5)O3)ncc2c1 (single isomer, unassigned) [Example 4, (5S*,5R*)—N-(isoquinolin-3-yl)-4′H-1-azaspiro[bicyclo[3.2.1]octane-6,5′-oxazol]-2′-amine] | 820 | < 100 | – | – | – |
| c1cnc2sc(NC3=NC[C@@]4(C[N@]5CCC[C@H]4C5)O3)nc2c1 (relative stereo) [Example 3, (5S*,5′R*)—N-(thiazolo[5,4-b]pyridin-2-yl)-4′H-1-azaspiro[bicyclo[3.2.1]octane-6,5′-oxazol]-2′-amine] | 1080 | 100 to 1000 | – | – | – |
| c1cnc2sc(NC3=NCC4(CN5CCCC4C5)O3)nc2c1 (single isomer, unassigned) [Example 5a] | 105 | < 100 | – | – | – |
| c1ccc2sc(NC3=NC[C@@]4(C[N@]5CCC[C@H]4C5)O3)nc2c1 (relative stereo) [Example 1, (5S*,5′R*)—N-(benzo[d]thiazol-2-yl)-4′H-1-azaspiro[bicyclo[3.2.1]octane-6,5′-oxazol]-2′-amine] | – | – | 4.00 to 6.00 | < 4.00 | – |
| COc1ccc2nc(NC3=NC[C@@]4(C[N@]5CCC[C@H]4C5)O3)sc2c1 (relative stereo) [Example 2, (5S*,5′R*)—N-(6-methoxybenzo[d]thiazol-2-yl)-4′H-1-azaspiro[bicyclo[3.2.1]octane-6,5′-oxazol]-2′-amine] | – | – | 6.00 to 7.00 | 5.69 | – |
| c1cnc2sc(NC3=NCC4(CN5CCCC4C5)O3)nc2c1 (single isomer, unassigned) [Example 5b] | 88 | – | – | – | > 7.00 |
